Reference: patent US7816521B2, “1,2,4-benzotriazine-1,4-dioxides” (Auckland Uniservices Limited, priority 2004, dated 2010)
Converted amounts (≈) assume the structure as drawn.

What was measured:
[1] = Plasma pharmacokinetics, AUC of free drug in CD-1 nude mice; format: in vivo, mouse; conditions: CD-1 nude, mouse, plasma, ip, mouse plasma, free drug, at the MTD or 75% of the MTD; Table 2; read-out: AUC
Protocol: The area under the concentration time curve for free drug (AUCf) in mouse plasma at the maximum tolerated dose (MTD) was determined either experimentally or by calculation.
The compound was formulated in a suitable vehicle (e.g. 0.9% saline, 5% DMSO in 0.9% saline) and administered intraperitoneally (i.p.) as single dose to CD-1 nude mice in a dose-escalating format using 1.33-fold dose increments.
The compound was administered to CD-1 nude mice in a suitable formulation as a single dose (i.p.) at the MTD. Blood samples were collected by retro-orbital sinus bleed or cardiac puncture after which the mouse was culled, or by serial bleeding from the tail vein. Typical time points were 15, 30, 60, and 120 min after administration. Blood was collected in a heparinised container and centrifuged to collect the plasma. The plasma concentration of the compound was determined by HPLC or LCMS using suitable sample preparation and analytical methods. Calibration was done with internal or external standards. The area under the concentration-time curve (AUC) for total (free plus bound) drug was calculated using the linear/log trapezoidal rule and extrapolation to infinity OR standard non-compartmental (PK) modelling.
Plasma protein binding was measured by the determination of the free fraction (FF) by equilibrium dialysis at 37° C. in 50% (v/v) mouse plasma in phosphate-buffered saline (pH 7.4), using a single drug concentration at or near the observed or extrapolated maximum concentration in plasma (Cmax). Compound concentrations after dialysis were determined by HPLC or LCMS.
AUCf for the compound administered as a single dose (i.p.) to CD-1 nude mice at the MTD can be estimated using the following regression equation: Log10(AUCf)=a+b×log Pneutral+c×log10(IC50)+d×log10(HCR)+e×log10(DMCL)+f×log10(kmet)+g×(log Pneutral)^2 where the coefficients are described in the following table: […]

[2] = tested on: hypoxic cells in HT29 tumours; assay: HT29 excision assay (drug after 20 Gy radiation, clonogenic survival); format: in vivo, human; conditions: log10 kill of hypoxic cells in HT29 tumours, additional to radiation alone; MTD or 75% of MTD; Table 2
From the text: In order to test the validity of this PK/PD model as a tool for predicting the antitumour activity of TPZ analogues, the inventors determined the key PK/PD parameters for 13 TPZ analogues, and TPZ itself, for the HT29 human colon carcinoma cell line. These parameters were then used to calculate the expected killing in hypoxic regions of HT29 tumours following a single intraperitoneal dose of the compounds at their maximum tolerated dose. The results of this calculation were then compared with measured killing of hypoxic cells in HT29 tumours, determined by administering the compounds immediately (within 5 min) after gamma irradiation (cobalt 60, 20 Gy) to sterilise oxygenated cells in the tumours. Tumours were removed 18 hours later and the number of surviving cells determined by clonogenic assay. The measured PK/PD parameters, model prediction (using the above 3D microvascular network), and experimentally determined hypoxic cell kill is shown in Table 1, and the relationship between predicted and measured cell kill in FIG. 4. The prediction is statistically highly significant (p=0.001, Fisher exact test). […] If the extravascular transport component was excluded from the model, the R^2 for this regression was only 0.28 and the relationship was not statistically significant.
Animals were treated with radiation alone (RAD, 20 Gy whole body); RAD+TPZ (316 μmol/kg); compound 3 (562 μmol/kg); RAD+compound 3 (562 μmol/kg). Tumours were excised 18 hr after treatment and clonogenic survival determined by staining colonies 14 days later. Each symbol represents a separate tumour. p<0.01 (one way ANOVA with Dunnett's test) for RAD+compound 3 and for RAD+TPZ versus RAD only. Horizontal lines are the historical means for untreated controls (upper line) and 20 Gy radiation only (lower line).
Compounds were evaluated with single dose radiation using s.c. HT29 tumors (average of two largest diameters 7-10 mm) grown by inoculating 10^7 cells (obtained by enzymatic dissociation of multicellular spheroids). Drugs were administered as single i.p. doses at their MTD with the following groups in each experiment. A: vehicle control, B: test drug, C: Radiation (20 Gy, cobalt-60, whole body irradiation), D: TPZ (316 μmol/kg) 5 min after radiation, E: Test drug 5 min after radiation. Each group included 3 (A, B) or 5 (C-E) mice. Tumors were excised 18 hr after treatment and plated to determine clonogenicity. Hypoxic cytotoxicity is determined by the difference in surviving fraction between groups C and E, while comparison of A and B evaluates oxic cell killing. Total yield of clonogens was used as the key parameter if cell yields were affected by treatment. Results of this assay are illustrated for compound 3 (and TPZ) in FIG. 5.

[3] = Solubility in culture medium; format: physicochemical; conditions: culture medium (αMEM with 5% foetal bovine serum), plasma or biological fluid, thermodynamic from solid; culture medium (αMEM, 5% foetal bovine serum), pH 7.4; no unit in table, threshold is 2 mM
Protocol: Solubility is determined in laboratory culture medium (alpha minimal essential medium (αMEM) with 5% foetal bovine serum) saturated with 5% carbon dioxide at pH 7.4, by addition of excess compound and sonication at ambient temperature for 15 minutes. Alternatively the compound is diluted from a concentrated stock solution in DMSO into culture medium to give a final DMSO concentration <1%. The mixture is centrifuged at 13,000 rpm for 6 minutes and the concentration of drug in the supernatant solution is then determined by HPLC using a standard reference solution in a suitable solvent.

[4] = tested on: human colon carcinoma cell line HT-29; assay: Proliferation assay (IC50) under aerobic and hypoxic conditions; format: cell-based; conditions: for IC50: Homo sapiens, HT-29, HT29, anoxic, 4 hr exposure; for HCR: hypoxic cytotoxicity ratio: aerobic IC50 / hypoxic IC50, HT29
Protocol: Compounds representative of the invention were evaluated under both aerobic and hypoxic conditions in a proliferation assay (IC50) using the human colon carcinoma cell line HT-29 as previously described [Hay et al, J. Med. Chem, 2003, 46, 169]. For each experiment, compounds were simultaneously tested under both oxic and hypoxic conditions and included TPZ as an independent internal control at the front and back of the assay. In all cases, a 8-methyl-5-nitroquinoline derivative was used as a second internal control to confirm that strict hypoxia was present during the experiment [Siim et al., Br. J. Cancer 1994, 70, 596].

Compound: CCc1ccc2c(c1)[n+]([O-])c(NCCCN1CCOCC1)n[n+]2[O-] [S, 6-Ethyl-N-[3-(4-morpholinyl)propyl]-1,2,4-benzotriazin-3-amine 1,4-Dioxide]
- AUC [1]: 94.9 µM·h
- HT29 log kill [2]: 0.82
- solubility [3]: 54.9 mM (≈ 18.3 mg/mL)
- IC50 [4]: 10.4 µM
- HCR [4]: 35.0

Compound: COc1ccc2c(c1)[n+]([O-])c(NCCN(C)C)n[n+]2[O-] [P, N^1-(6-Methoxy-1,4-dioxido-1,2,4-benzotriazin-3-yl)-N^2,N^2-dimethyl-1,2-ethanediamine]
- AUC [1]: 240 µM·h
- HT29 log kill [2]: 1.84
- solubility [3]: 45.5 mM (≈ 12.7 mg/mL)
- IC50 [4]: 7.65 µM
- HCR [4]: 89.3

Compound: CCOc1ccc2c(c1)[n+]([O-])c(NCCN(C)C)n[n+]2[O-] [R, N^1,N^1-Dimethyl-N^2-(6-ethoxy-1,4-dioxido-1,2,4-benzotriazin-3-yl)-1,2-ethanediamine]
- AUC [1]: 82.4 µM·h
- HT29 log kill [2]: 0.83
- solubility [3]: 50.3 mM (≈ 14.8 mg/mL)
- IC50 [4]: 2.6 µM
- HCR [4]: 120.6

Compound: Cc1ccc2c(c1)[n+]([O-])c(NCCCN1CCOCC1)n[n+]2[O-] [O, 6-Methyl-N-[3-(4-morpholinyl)propyl]-1,2,4-benzotriazin-3-amine 1,4-Dioxide]
- AUC [1]: 195 µM·h
- HT29 log kill [2]: 1.28
- solubility [3]: 42.6 mM (≈ 13.6 mg/mL)
- IC50 [4]: 15.5 µM
- HCR [4]: 24.7

Compound: CCc1n[n+]([O-])c2ccc(OCCCN3CCOCC3)cc2[n+]1[O-] [U, 3-Ethyl-6-[3-(4-morpholinyl)propoxy]-1,2,4-benzotriazine 1,4-Dioxide]
- AUC [1]: 162 µM·h
- HT29 log kill [2]: 1.66
- solubility [3]: 46.7 mM (≈ 15.6 mg/mL)
- IC50 [4]: 6.17 µM
- HCR [4]: 166.2

Compound: COCCOc1ccc2c(c1)[n+]([O-])c(NCCN(C)C)n[n+]2[O-] [Q, N^1-[6-(2-Methoxyethoxy)-1,4-dioxido-1,2,4-benzotriazin-3-yl]-N^2,N^2-dimethyl-1,2-ethanediamine]
- AUC [1]: 256 µM·h
- HT29 log kill [2]: 0.53
- solubility [3]: 51.2 mM (≈ 16.6 mg/mL)
- IC50 [4]: 4.98 µM
- HCR [4]: 162.0

Compound: CCc1n[n+]([O-])c2ccc(OCCN(C)C)cc2[n+]1[O-] [T, 2-[(3-Ethyl-1,4-dioxido-1,2,4-benzotriazin-6-yl)oxy]-N, N-dimethylethaneamine]
- AUC [1]: 55.7 µM·h
- HT29 log kill [2]: 0.88
- solubility [3]: 48.5 mM (≈ 13.5 mg/mL)
- IC50 [4]: 1.33 µM
- HCR [4]: 307.2
